Assay results taken from US9156811B2 (priority 2008, dated 2015).
Like-named read-outs stand apart in the source and are kept apart here. Values belong to the compound of their own block, whether it stands above or below them.

What was measured:
[1] = test system: Trypanosome (T. brucei brucei); test: In-vitro antitrypanosomal efficacy assay (cell growth, resazurin); assay type: cell-based
[2] = CNS penetration: drug concentration in blood and brain after i.v. dosing; assay type: in vivo; conditions: iv, female NMRI mouse, t = 5 min; for Kp at 5 min: brain / whole blood; for concentration at 5 min: average of three animals
[3] = target: human NMT-1 (Homo sapiens (Human), UniProt P30419); test: NMT enzyme inhibition scintillation proximity assay, human NMT-1; assay type: biochemical; conditions: Human NMT-1; value in parentheses; read-out: IC50 (μM) NMT Enzyme (HuNMT-1)
human NMT-1, sequence (P30419 whole entry): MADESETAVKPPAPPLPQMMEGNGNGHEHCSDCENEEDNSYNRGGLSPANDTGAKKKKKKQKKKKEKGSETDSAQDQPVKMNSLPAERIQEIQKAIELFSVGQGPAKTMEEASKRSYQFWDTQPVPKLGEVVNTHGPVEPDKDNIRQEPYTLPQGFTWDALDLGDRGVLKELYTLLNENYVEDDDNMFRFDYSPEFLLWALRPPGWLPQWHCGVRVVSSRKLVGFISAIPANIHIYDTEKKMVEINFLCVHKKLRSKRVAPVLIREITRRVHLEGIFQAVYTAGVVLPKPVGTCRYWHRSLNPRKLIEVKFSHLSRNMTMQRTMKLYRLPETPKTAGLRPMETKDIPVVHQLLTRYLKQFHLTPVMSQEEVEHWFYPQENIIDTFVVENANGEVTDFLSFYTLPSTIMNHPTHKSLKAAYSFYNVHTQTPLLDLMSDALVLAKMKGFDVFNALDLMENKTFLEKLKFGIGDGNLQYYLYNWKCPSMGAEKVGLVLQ

[4] = target: T. brucei N-myristoyl transferase (Trypanosoma brucei brucei (strain 927/4 GUTat10.1), UniProt Q388H8); test: biochemical; assay type: biochemical; conditions: read-out: IC50 (μM) NMT Enzyme (T. brucei NMT)
T. brucei N-myristoyl transferase, sequence (Q388H8 1-446): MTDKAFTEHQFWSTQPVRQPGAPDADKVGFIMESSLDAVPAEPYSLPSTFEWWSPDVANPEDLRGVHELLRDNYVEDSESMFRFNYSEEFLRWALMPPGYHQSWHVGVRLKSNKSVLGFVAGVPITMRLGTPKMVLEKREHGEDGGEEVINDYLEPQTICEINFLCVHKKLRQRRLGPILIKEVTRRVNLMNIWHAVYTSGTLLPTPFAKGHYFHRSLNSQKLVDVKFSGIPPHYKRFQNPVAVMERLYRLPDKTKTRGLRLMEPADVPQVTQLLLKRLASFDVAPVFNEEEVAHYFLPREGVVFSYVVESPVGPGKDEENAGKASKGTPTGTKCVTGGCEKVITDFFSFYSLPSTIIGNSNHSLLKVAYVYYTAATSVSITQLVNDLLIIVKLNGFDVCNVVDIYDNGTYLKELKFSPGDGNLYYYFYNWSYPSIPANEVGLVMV

[5] = target: L. major N-myristoyl transferase (Leishmania major, UniProt Q4Q5S8); assay type: biochemical; conditions: Leishmania major NMT; value in parentheses; read-out: IC50 (μM) NMT Enzyme (LmNMT)
L. major N-myristoyl transferase, sequence (Q4Q5S8 1-421): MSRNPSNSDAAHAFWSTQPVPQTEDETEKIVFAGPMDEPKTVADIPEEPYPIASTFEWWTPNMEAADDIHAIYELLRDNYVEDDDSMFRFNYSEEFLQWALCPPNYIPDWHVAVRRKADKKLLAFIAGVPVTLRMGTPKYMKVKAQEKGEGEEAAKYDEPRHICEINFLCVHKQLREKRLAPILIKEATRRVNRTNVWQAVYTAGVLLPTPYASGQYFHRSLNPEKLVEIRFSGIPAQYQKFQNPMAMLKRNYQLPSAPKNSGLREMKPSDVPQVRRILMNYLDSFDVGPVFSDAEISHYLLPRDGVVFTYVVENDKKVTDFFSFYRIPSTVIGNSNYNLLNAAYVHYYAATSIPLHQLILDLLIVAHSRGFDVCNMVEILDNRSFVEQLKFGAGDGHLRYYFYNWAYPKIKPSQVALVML

[6] = brain, single i.v. dose 2.0 mg/kg, read-out: Conc (ng/ml in brain)
[7] = whole blood, single i.v. dose 2.0 mg/kg, read-out: Conc (ng/ml in blood)
[8] = T. brucei brucei, blood stream form, variant 221
[9] = T. brucei NMT, value without parentheses

Structure (SMILES): Cc1c(N[S+](=O)([O-])c2ccc(-c3cccc(CN(C)C)c3)cc2)c(CC(C)C)nn1C [DDD99742]
ED50 (μM) T. brucei ([1]; T. brucei cell growth): 0.019 µM | Kp at 5 min ([2]; single i.v. dose 2.0 mg/kg): 0.66 | concentration at 5 min [2, 6]: 422 ng/mL | concentration at 5 min [2, 7]: 642 ng/mL

Structure (SMILES): Cc1c(NS(=O)(=O)c2ccc(CCCC3CCN(C)CC3)cc2)c(CC(C)C)nn1C [DDD99837, N-(3-isobutyl-1,5-dimethyl-1H-pyrazol-4-yl)-4-(3-(1-methylpiperidin-4-yl)propyl)benzenesulfonamide]
ED50 (μM) T. brucei [1, 8]: 0.036 µM | Kp at 5 min ([2]; single i.v. dose 3.0 mg/kg): 0.26 | concentration at 5 min ([2]; brain, single i.v. dose 3.0 mg/kg, read-out: Conc (ng/ml in brain)): 99 ng/mL | concentration at 5 min ([2]; whole blood, single i.v. dose 3.0 mg/kg, read-out: Conc (ng/ml in blood)): 388 ng/mL

Structure (SMILES): Cc1nn(C)c(C)c1N(C(F)F)[S+](=O)([O-])c1c(Cl)cc(CCCC2CCN(C)CC2)cc1Cl [DDD100097, 2,6-dichloro-N-(difluoromethyl)-4-(3-(1-methylpiperidin-4-yl)propyl)-N-(1,3,5-trimethyl-1H-pyrazol-4-yl)benzenesulfonamide]
ED50 (μM) T. brucei [1, 8]: 0.001 µM | Kp at 5 min ([2]; single i.v. dose 2.0 mg/kg): 1.5 | concentration at 5 min [2, 6]: 335 ng/mL | concentration at 5 min [2, 7]: 224 ng/mL

Structure (SMILES): Cc1nn(C)c(C)c1N(CC(F)(F)F)[S+](=O)([O-])c1c(Cl)cc(CCCN2CCN(C)CC2)cc1Cl [DDD100149]
IC50 [3]: 2.4 µM | IC50 [4, 9]: 0.014 µM | ED50 (μM) T. brucei [1, 8]: 0.132 µM

Structure (SMILES): Cc1c(N[S+](=O)([O-])c2ccc(-c3cccc(CNCc4ccccc4)c3)cc2)c(CC(C)C)nn1C [DDD100150]
IC50 [3]: 4 µM | IC50 [4, 9]: 1.3 µM | ED50 (μM) T. brucei [1, 8]: >1 µM

Structure (SMILES): Cc1nn(C)c(C)c1N(C(F)F)[S+](=O)([O-])c1c(Cl)cc(CCCCCCn2ccnc2)cc1Cl [DDD100156]
IC50 [3]: 1.1 µM | IC50 [4]: 0.016 µM | IC50 [5]: 0.048 µM | ED50 (μM) T. brucei [1, 8]: 0.148 µM

Structure (SMILES): Cc1nn(C)c(C)c1N(CC(F)F)[S+](=O)([O-])c1c(Cl)cc(CCCN2CCN(C)CC2)cc1Cl [DDD100163]
IC50 [3]: 1.7 µM | IC50 [4, 9]: 0.014 µM | ED50 (μM) T. brucei [1, 8]: 0.125 µM

Structure (SMILES): Cc1nn(C)c(C)c1N(C(F)F)[S+](=O)([O-])c1c(Cl)cc(CCCCCCn2ccnc2C(C)C)cc1Cl [DDD100791]
IC50 [3]: 2.1 µM | IC50 [4]: 0.21 µM | IC50 [5]: 0.044 µM | ED50 (μM) T. brucei [1, 8]: 0.344 µM

Structure (SMILES): Cc1c(N[S+](=O)([O-])c2ccc(-c3cccc(CNCc4cccnc4)c3)cc2)c(CC(C)C)nn1C [DDD100793]
IC50 [4, 9]: 0.026 µM | IC50 [5]: 1.4 µM | ED50 (μM) T. brucei [1, 8]: 0.54 µM

Structure (SMILES): Cc1c(N[S+](=O)([O-])c2ccc(-c3cccc(CN(C)Cc4cccnc4)c3)cc2)c(CC(C)C)nn1C [DDD100796]
IC50 [3]: > 1 µM | IC50 [4, 9]: 0.86 µM | IC50 [5]: > 1 µM | ED50 (μM) T. brucei [1, 8]: >1 µM

Structure (SMILES): Cc1c(N[S+](=O)([O-])c2ccc(-c3cccc(CNC(C)C)c3)cc2)c(CC(C)C)nn1C [DDD100799]
IC50 [4, 9]: 0.02 µM | IC50 [5]: 0.47 µM | ED50 (μM) T. brucei [1, 8]: 0.293 µM

Structure (SMILES): Cc1c(N[S+](=O)([O-])c2ccc(-c3ccc4c(c3)CNCC4)cc2)c(CC(C)C)nn1C [DDD100801]
IC50 [4, 9]: 0.004 µM | IC50 [5]: 0.011 µM | ED50 (μM) T. brucei [1, 8]: 0.014 µM

Structure (SMILES): Cc1c(N[S+](=O)([O-])c2ccc(-c3cccc(CN4CCCC4C)c3)cc2)c(CC(C)C)nn1C (stereo not drawn) [DDD100804]
IC50 [4, 9]: 0.006 µM | IC50 [5]: 0.077 µM | ED50 (μM) T. brucei [1, 8]: 0.035 µM

Structure (SMILES): Cc1c(N[S+](=O)([O-])c2ccc(-c3ccc(F)c(CN4CCCC4)c3)cc2)c(CC(C)C)nn1C [DDD100806]
IC50 [4, 9]: 0.004 µM | IC50 [5]: 0.224 µM | ED50 (μM) T. brucei [1, 8]: 0.033 µM

Structure (SMILES): Cc1c(N[S+](=O)([O-])c2ccc(-c3ccccc3CN(C)C)cc2)c(CC(C)C)nn1C [DDD100862]
IC50 [4, 9]: 0.358 µM | IC50 [5]: > 1 µM | ED50 (μM) T. brucei [1, 8]: >1 µM

Structure (SMILES): Cc1c(N[S+](=O)([O-])c2ccc(-c3cccc(C(C)(C)N(C)C)c3)cc2)c(CC(C)C)nn1C [DDD100863]
IC50 [4, 9]: 0.006 µM | IC50 [5]: 0.091 µM | ED50 (μM) T. brucei [1, 8]: 0.015 µM

Structure (SMILES): Cc1c(N[S+](=O)([O-])c2ccc(-c3ccc(CN(C)C)cc3)cc2)c(CC(C)C)nn1C [DDD100865]
IC50 [4, 9]: 0.097 µM | IC50 [5]: 1.9 µM | ED50 (μM) T. brucei [1, 8]: 7.3 µM

Structure (SMILES): CCCCc1nn(C)c(C)c1N[S+](=O)([O-])c1ccc(-c2cccc(CN(C)C)c2)cc1 [DDD100866]
IC50 [4, 9]: 0.01 µM | IC50 [5]: 0.054 µM | ED50 (μM) T. brucei [1, 8]: 3.2 µM

Structure (SMILES): CCCc1nn(C)c(C)c1N[S+](=O)([O-])c1ccc(-c2cccc(CN(C)C)c2)cc1 [DDD100867]
IC50 [4, 9]: 0.006 µM | IC50 [5]: 0.074 µM | ED50 (μM) T. brucei [1, 8]: 0.048 µM

Structure (SMILES): Cc1c(N[S+](=O)([O-])c2ccc(Br)cc2)c(CCc2ccccc2)nn1C [DDD100880]
IC50 [3]: > 1 µM | IC50 [4, 9]: > 1 µM | IC50 [5]: > 1 µM | ED50 (μM) T. brucei [1, 8]: 21.4 µM

Structure (SMILES): Cc1c(N[S+](=O)([O-])c2ccc(CCCC3CCN(C)CC3)cc2)c(Cc2ccccc2)nn1C [DDD100881]
IC50 [4, 9]: 0.02 µM | IC50 [5]: 0.778 µM | ED50 (μM) T. brucei [1, 8]: 0.234 µM

Structure (SMILES): Cc1c(N[S+](=O)([O-])c2ccc(-c3cccc(CNCCc4ccccn4)c3)cc2)c(CC(C)C)nn1C [DDD100882]
IC50 [4, 9]: 0.305 µM | IC50 [5]: > 1 µM | ED50 (μM) T. brucei [1, 8]: 2.45 µM

Second part, led by results:

IC50 [4, 9]: 0.004 µM | IC50 [5]: 0.019 µM
Structure (SMILES): Cc1c(N[S+](=O)([O-])c2ccc(-c3cccc(CNCCc4cccnc4)c3)cc2)c(CC(C)C)nn1C [DDD100869]
ED50 (μM) T. brucei [1, 8]: 5.7 µM

IC50 [3]: > 1 µM | IC50 [4, 9]: 7.95 µM | IC50 [5]: > 1 µM
Structure (SMILES): CCCc1nn(C)c(C)c1N[S+](=O)([O-])c1ccc(Br)cc1 [DDD100871]
ED50 (μM) T. brucei [1, 8]: 51.0 µM

IC50 [3]: > 1 µM | IC50 [4, 9]: 13.8 µM | IC50 [5]: > 1 µM
Structure (SMILES): Cc1nn(C)c(C)c1N[S+](=O)([O-])c1ccc(-c2cccc(-c3cn(C)cn3)c2)cc1 [DDD100873]
ED50 (μM) T. brucei [1, 8]: >1 µM

IC50 [3]: > 1 µM | IC50 [4, 9]: 0.74 µM | IC50 [5]: > 1 µM
Structure (SMILES): Cc1nn(C)c(C)c1N[S+](=O)([O-])c1ccc(-c2cccc(-c3nccn3C)c2)cc1 [DDD100874]
ED50 (μM) T. brucei [1, 8]: >1 µM

IC50 [3]: > 1 µM | IC50 [4, 9]: 2.68 µM | IC50 [5]: > 1 µM
Structure (SMILES): CCCCc1nn(C)c(C)c1N[S+](=O)([O-])c1ccc(Br)cc1 [DDD100875]
ED50 (μM) T. brucei [1, 8]: 20.5 µM

IC50 [4, 9]: 0.006 µM | IC50 [5]: 0.059 µM
Structure (SMILES): Cc1c(N[S+](=O)([O-])c2ccc(-c3ccc4c(c3)CN(C)CC4)cc2)c(CC(C)C)nn1C [DDD100876]
ED50 (μM) T. brucei [1, 8]: 0.014 µM

IC50 [3]: 2.4 µM | IC50 [4, 9]: 0.262 µM | IC50 [5]: 0.906 µM
Structure (SMILES): Cc1nn(C)c(C)c1N[S+](=O)([O-])c1ccc(-c2cccc(-c3nccn3C)c2)cc1 [DDD100878]
ED50 (μM) T. brucei [1, 8]: >1 µM

IC50 [3]: 2.6 µM | IC50 [4, 9]: 0.803 µM | IC50 [5]: 1.59 µM
Structure (SMILES): Cc1nn(C)c(C)c1N[S+](=O)([O-])c1ccc(-c2cccc(-c3c[nH]cn3)c2)cc1 [DDD100879]
ED50 (μM) T. brucei [1, 8]: >1 µM

IC50 [3]: > 1 µM | IC50 [4, 9]: 0.023 µM | IC50 [5]: 0.672 µM
Structure (SMILES): Cc1c(N[S+](=O)([O-])c2ccc(CCCCC3CCN(C)CC3)cc2)c(Cc2ccccc2)nn1C [DDD100883]
ED50 (μM) T. brucei [1, 8]: 0.427 µM

IC50 [3]: > 1 µM | IC50 [4, 9]: 1.08 µM | IC50 [5]: > 1 µM
Structure (SMILES): Cc1nn(C)c(C)c1N[S+](=O)([O-])c1ccc(-c2cccc(-c3ncc[nH]3)c2)cc1 [DDD100884]
ED50 (μM) T. brucei [1, 8]: >1 µM

IC50 [4, 9]: 0.032 µM | IC50 [5]: 0.211 µM
Structure (SMILES): Cc1c(N[S+](=O)([O-])c2ccc(-c3cccc(CN(C)C)c3)cc2)c(CCc2ccccc2)nn1C [DDD100885]
ED50 (μM) T. brucei [1, 8]: 9.72 µM
